US20020082254A1, “Compounds for treating disorders where a decreased level of plasma FFA is desired” (priority 2000, published 2002)
Where a name gives a salt, the structure may show the parent alone. Read-outs that look alike come from different tables or passages of the source.

Columns and labels:
[1] = target: T1, Hormone-sensitive lipase (HSL) (Homo sapiens, UniProt Q05469); assay: Hormone-sensitive lipase (HSL) inhibition assay, 3H-labeled triolein or MOME substrate; type: biochemical
T1 sequence (Q05469 1-1076): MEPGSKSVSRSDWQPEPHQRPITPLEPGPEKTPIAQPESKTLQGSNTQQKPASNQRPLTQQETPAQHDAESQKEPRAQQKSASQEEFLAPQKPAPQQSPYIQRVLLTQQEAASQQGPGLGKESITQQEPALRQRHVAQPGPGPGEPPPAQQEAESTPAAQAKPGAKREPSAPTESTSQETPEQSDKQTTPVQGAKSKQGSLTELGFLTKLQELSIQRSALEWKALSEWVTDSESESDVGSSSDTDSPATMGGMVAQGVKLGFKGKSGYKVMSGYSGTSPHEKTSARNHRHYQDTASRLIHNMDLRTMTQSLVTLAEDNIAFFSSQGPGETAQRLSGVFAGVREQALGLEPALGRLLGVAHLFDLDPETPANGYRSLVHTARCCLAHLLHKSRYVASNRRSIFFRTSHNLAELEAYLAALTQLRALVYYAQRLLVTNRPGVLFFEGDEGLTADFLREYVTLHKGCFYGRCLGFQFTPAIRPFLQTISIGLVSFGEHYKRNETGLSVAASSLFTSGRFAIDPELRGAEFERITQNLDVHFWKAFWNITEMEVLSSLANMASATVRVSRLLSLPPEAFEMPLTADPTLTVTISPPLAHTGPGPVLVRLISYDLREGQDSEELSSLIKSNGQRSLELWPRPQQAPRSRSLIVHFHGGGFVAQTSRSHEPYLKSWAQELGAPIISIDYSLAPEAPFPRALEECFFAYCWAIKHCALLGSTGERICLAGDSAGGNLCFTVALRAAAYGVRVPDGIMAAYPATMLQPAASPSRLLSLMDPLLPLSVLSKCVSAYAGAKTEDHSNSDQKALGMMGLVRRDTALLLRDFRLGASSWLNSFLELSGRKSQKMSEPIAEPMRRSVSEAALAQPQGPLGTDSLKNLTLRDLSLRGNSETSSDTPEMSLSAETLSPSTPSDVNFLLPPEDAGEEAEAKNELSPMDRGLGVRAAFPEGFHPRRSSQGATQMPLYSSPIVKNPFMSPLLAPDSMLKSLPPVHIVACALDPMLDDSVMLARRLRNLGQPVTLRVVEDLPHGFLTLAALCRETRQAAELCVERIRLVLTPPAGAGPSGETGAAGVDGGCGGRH
Source text: Hormone-sensitive lipase (HSL) [classified as a triacylglycerol lipase, EC 3.1.1.3, in accordance with the Recommendations of the Nomenclature Committee of the International Union of Biochemistry and Molecular Biology (available on the World Wide Web at the following address: http://www.chem.qmw.ac.uk/iubmb/enzyme/)]
Materials. The Hormone-sensitive lipase employed was provided by Dr. Cecilia Holm of Lund University, Sweden, or produced and purified by Novo Nordisk (NN) using the reagents and protocols employed by Dr. Holm. The substrates used are: ^3H-labeled triolein (TO) from Amersham, Buckinghamshire, U.K. cat No. TRA191; 5-20 Ci/mmol dissolved in toluene, triolein (Sigma, Cat. No. T-1740) and mono-oleoyl-2-O-mono-oleylglycerol (MOME) synthesized at (NN) using the protocols provided by Dr. Cecilia Holm, Lund University, Sweden. Phosphatidyl choline (PC) and phosphatidyl inositol (PI) are from Sigma (St Luis Mo., cat. Nos. P-3556 and P-5954, respectively). All other reagents are of commercial grade and obtained from various commercial sources.
Methods. The preparation of the substrates is as follows:
TO: 30 μl PC:PI (20 mg/ml solution of PC:PI 3:1 prepared in chloroform)+128 μl cold TO+15 μl ^3H-TO
MOME: 30 μl PC:PI+100 μl cold MOME+200 μl ^3H-MOME
They are then evaporated under a gentle stream of N2 followed by 20-30 minutes in a Speedvac™ apparatus to ensure the absence of residual solvent.
The samples are prepared as follows:
Samples/controls: 78 μl PED-BSA+20 μl inhibitor (various concentrations)+2 μl HSL (undiluted 0.12 mg/ml). If no inhibitors are being tested, the reaction contains 98 μl PED-BSA+2 μl HSL.
The samples are put on ice and then sonicated as follows:
With TO as substrate, add 2 ml potassium buffer (0.1M potassium phosphate, pH 7) and then sonicate twice for 1 minute, with a 1-minute interval between cycles. Add an additional 1 ml potassium buffer and sonicate 4 times for 30 seconds, with a 30 second interval in between cycles. To finish, add 1 ml BSA 20%-in potassium buffer, mix by inversion and store on ice until use.
With MOME as substrate: add 2 ml potassium buffer and then sonicate twice for 1 minute, with a 1 minute interval between cycles. Add 1.6 ml potassium buffer and sonicate 4 times for 30 seconds, with a 30-second interval between cycles. To finish, add 0.4 ml BSA 20%-buffer, mix by inversion and store on ice until use.
The enzyme reaction is run at 37° C. The substrate mix is added to the various reactions at 10 second intervals, incubated for 30 minutes in a water bath and then stopped with 3.25 ml of a solution containing CH3OH:CHCl3:heptane (10:9:7). After the addition of 1.05 ml potassium buffer pH10.5, the sample is vortexed thoroughly and centrifuged for 20 min at 2000 r.p.m. One ml of the upper phase is added to 10 ml scintillation fluid, and mixed thoroughly by shaking.
The samples are then counted, 5 min per vial, in a scintillation counter.

Lipoprotein lipase (LPL) = target: T2, Lipoprotein lipase (LPL) (Bos taurus, UniProt P11151); assay: Lipoprotein lipase (LPL) inhibition assay, 3H-triolein/intralipid substrate; type: biochemical; settings: read-out: LPL inhibition (% inh. at 50 μM)
T2 construct: Dr. Gunilla Olivecrona, Umea University (gift)
T2 sequence (P11151 29-478): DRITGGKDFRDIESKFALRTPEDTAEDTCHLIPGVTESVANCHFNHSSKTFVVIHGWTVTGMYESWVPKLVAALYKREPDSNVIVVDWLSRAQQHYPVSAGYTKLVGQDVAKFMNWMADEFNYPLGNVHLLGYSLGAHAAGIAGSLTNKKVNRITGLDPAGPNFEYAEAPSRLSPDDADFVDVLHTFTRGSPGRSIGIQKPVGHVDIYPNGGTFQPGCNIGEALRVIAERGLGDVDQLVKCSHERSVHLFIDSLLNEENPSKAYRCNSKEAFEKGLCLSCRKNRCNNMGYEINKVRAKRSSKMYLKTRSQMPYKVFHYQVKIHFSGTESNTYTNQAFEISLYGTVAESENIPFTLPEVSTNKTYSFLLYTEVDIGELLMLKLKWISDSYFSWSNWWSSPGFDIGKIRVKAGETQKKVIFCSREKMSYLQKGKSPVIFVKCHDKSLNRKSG
Source text: Lipoprotein Lipase (LPL) [Classified as EC 3.1.1.34 in accordance with the Recommendations of the Nomenclature Committee of the International Union of Biochemistry and Molecular Biology (available on the World Wide Web at the following address: http://www.chem.qmw.ac.uk/iubmb/enzyme/)]
Materials. The lipoprotein lipase employed was obtained from Dr. Gunilla Olivecrona of Umea University, Sweden. ^3H-triolein (TO) from Amersham, Buckinghamshire, U.K., cat No. TRA191; 5-20 Ci/mmol dissolved in toluene. Intralipid is from Kabi-Fresenius). Apo CII was obtained from PMSF-treated plasma from overnight fasted rats. All other reagents are of commercial grade and obtained from various commercial sources.
Methods. The preparation of the substrate is as follows:
25 μl of ^3H-Triolein evaporated under a gentle stream of N2 in a 27° C. room in 4 ml chromacol glass followed by the addition of 1 ml 10% intralipid. This is mixed and sonicated on ice for 5 minutes (50% pulse mode). This can be kept for 1 week at 4° C.
100 μl assay medium (0.3M Tris-Cl, 0.2M NaCl, 0.2 mg heparin/ml and 120 mg BSA/ml (fraction V, Sigma no. 3401, pH 8.5))
All mixed in a 13×100 mm glass tube and incubated for at least 5 minutes.
2. Add 5 μl LPL (of a solution containing 500 mU/mg)
Mix and incubate for 30 minutes at 25° C.
3. The reaction is stopped with 3.25 ml of a solution containing Methanol:chloroform:heptan 10:9:7. Add 1.05 ml buffer (100 mM Boric acid, 100 mM potassium carbonate pH 10.5) and mix 10 seconds per vial.
5. Take 1 ml of the upper phase+10 ml scintillation fluid and mix
6. Scintillation count for 5 minutes per vial.

[2] = read-out: HSL inhibition (IC50)

Row | Compound | IC50 [1, 2] [nM] | inhibition at 50 µM (Lipoprotein lipase (LPL)) [%] | IC50 [1] [nM]
1 | Nc1ccc(OC(=O)NN2CCc3ccccc3C2)cc1 [Example 18, (3,4-Dihydro-1H-isoquinolin-2-yl)-carbamic Acid 4-amino-phenyl Ester Hydrochloride] | 7700 | 0 | 
2 | CCCc1ccc(OC(=O)NN2CCc3ccccc3C2)cc1 [Example 20, (3,4-Dihydro-1H-isoquinolin-2-yl)-carbamic Acid 4-propyl-phenyl Ester] | 240 | 4 | 
3 | CN(C(=O)Oc1ccc(Cl)cc1)N1CCc2ccccc2C1 [Example 21, (3,4-Dihydro-1H-isoquinolin-2-yl)-methyl-carbamic Acid 4-chloro-phenyl Ester] | > 10000 | 5 | 
4 | CC1c2ccccc2CCN1NC(=O)Oc1ccc(Cl)cc1 (stereo not drawn) [Example 22, (1-Methyl-3,4-dihydro-1H-isoquinolin-2-yl)-carbamic Acid 4chloro-phenyl Ester] | 30 | 10 | 
5 | O=C(NN1CCc2ccccc2C1)Oc1ccc(Cc2ccccc2)cc1 [Example 27] |  | 5 | 90
6 | CCc1ccc(OC(=O)NN2CCc3ccccc3C2)cc1 [Example 28] | 70 | 3 | 
7 | O=C(NN1CCc2ccccc2C1)Oc1ccc(OCc2ccccc2)cc1 [Example 29] | 2600 | 0 | 
8 | CCCCOc1ccc(OC(=O)NN2CCc3ccccc3C2)cc1 [Example 30] | 3800 | 6 | 
9 | CCC(C)(C)c1ccc(OC(=O)NN2CCc3ccccc3C2)cc1 [Example 31] | > 10000 | 1 | 
10 | CC(C)(C)c1ccc(OC(=O)NN2CCc3ccccc3C2)cc1 [Example 32] | > 10000 | 0 | 
11 | CCC(C)c1ccc(OC(=O)NN2CCc3ccccc3C2)cc1 (stereo not drawn) [Example 33] | 170 | 2 | 
12 | CCOC(=O)c1ccc(OC(=O)NN2CCc3ccccc3C2)cc1 [Example 35] | > 10000 | 0 | 
13 | CCCCCOc1ccc(OC(=O)NN2CCc3ccccc3C2)cc1 [Example 37] | 3900 | 0 | 
14 | O=C(NN1CCc2ccccc2C1)Oc1ccc(Oc2ccccc2)cc1 [Example 38] | 330 | 0 | 
15 | CCCOc1ccc(OC(=O)NN2CCc3ccccc3C2)cc1 [Example 39] | 2500 | 2 | 
16 | O=C(NN1CCc2ccccc2C1)Oc1ccc(OC(F)(F)F)cc1 [Example 40] | 3400 | 1 | 
17 | COC(=O)Cc1ccc(OC(=O)NN2CCc3ccccc3C2)cc1 [Example 42] | 40 | 6 | 
18 | O=C(NN1CCc2ccccc2C1)Oc1ccc(C2CCCCC2)cc1 [Example 43] | > 10000 | 6 | 
